Converted amounts (≈) assume the structure as drawn.
Experiments:
in vivo [1] = conditions: rat, po, 2.5 mg/kg
physchem [2] = conditions: aqueous
physchem [3] = conditions: aqueous; remark: listed apart in the source
in vivo [4] = conditions: rat, plasma, po, 2.5 mg/kg

For `CC(C)S(=O)(=O)c1ccccc1Nc1nc(Nc2cccc(NC(=O)CN)c2)ncc1Cl`, the half-life (in vivo [1]) was 30 min, the solubility (physchem [2]) was 4000 µg/mL (≈ 8.42 mM) and the solubility (physchem [3]) was under 100 µg/mL. It also gave an AUC(0-inf) (in vivo [4]) of 454 ng·h/mL.
